Measurements as given in patent US10519154B2, “7-substituted 1-pyridyl-naphthyridine-3-carboxylic acid amides and use thereof” (Bayer Pharma Aktiengesellschaft, priority 2016, dated 2019).
pEC50: −log10 of the molar value.

Target: T1, human M2 receptor (Homo sapiens, UniProt P08172)
T1 sequence (P08172 1-466): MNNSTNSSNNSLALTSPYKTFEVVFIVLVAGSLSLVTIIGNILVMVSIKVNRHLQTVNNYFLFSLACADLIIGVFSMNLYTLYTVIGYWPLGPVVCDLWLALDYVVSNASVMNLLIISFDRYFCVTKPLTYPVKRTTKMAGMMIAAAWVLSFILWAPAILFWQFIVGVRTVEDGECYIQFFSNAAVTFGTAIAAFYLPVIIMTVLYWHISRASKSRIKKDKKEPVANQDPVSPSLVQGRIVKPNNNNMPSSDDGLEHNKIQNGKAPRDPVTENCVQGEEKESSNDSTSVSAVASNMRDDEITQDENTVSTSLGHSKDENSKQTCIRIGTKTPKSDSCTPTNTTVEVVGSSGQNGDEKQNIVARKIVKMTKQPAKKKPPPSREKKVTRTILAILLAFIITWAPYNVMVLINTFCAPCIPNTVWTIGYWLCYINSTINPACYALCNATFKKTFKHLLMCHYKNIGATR
Assay: Functional M2-GIRK1/4 activation test: allosteric potency (EC50) and efficiency
Details: for pEC50: Receptor activity EC50, CHO-DUKX-M2-GIRK cells, acetylcholine at EC20, in some cases mean of two or more determinations; for Emax: read-out: Efficiency, boosting of the acetylcholine effect at EC20 acetylcholine concentration, CHO-DUKX-M2-GIRK cells

Compound | pEC50 | Emax [%]
CC[C@H](NC(=O)c1cn(-c2ncc(F)cc2F)c2nc(N3CC(F)C3)ccc2c1=O)C(F)(F)F [Example 132, 1-(3,5-Difluoropyridin-2-yl)-7-(3-fluoroazetidin-1-yl)-4-oxo-N-[(2S)-1,1,1-trifluorobutan-2-yl]-1,4-dihydro-1,8-naphthyridine-3-carboxamide] | 6.49 | 98
CCC(COC(F)(F)F)NC(=O)c1cn(-c2ncc(F)cc2F)c2nc(N3C[C@@H](C)NC3=O)ccc2c1=O (stereo partly drawn) [Example 141, 1-(3,5-Difluoropyridin-2-yl)-7-[(4R)-4-methyl-2-oxoimidazolidin-1-yl]-4-oxo-N-[1-(trifluoromethoxy)butan-2-yl]-1,4-dihydro-1,8-naphthyridine-3-carboxamide] | 7.74 | 95
CC[C@@H](NC(=O)c1cn(-c2ncc(F)cc2F)c2nc(N3CCCC(F)(F)C3)ccc2c1=O)C(F)(F)F [Example 72, 7-(3,3-Difluoropiperidin-1-yl)-1-(3,5-difluoropyridin-2-yl)-4-oxo-N-[(2R)-1,1,1-trifluorobutan-2-yl]-1,4-dihydro-1,8-naphthyridine-3-carboxamide] | 7.35 | 90
O=C(NC(c1ccc(F)cc1)C(F)(F)F)c1cn(-c2ncc(F)cc2F)c2nc(N3C[C@@H](O)CC3=O)ccc2c1=O (single isomer, unassigned) [Example 12] | 7.26 | 100
CC[C@H](NC(=O)c1cn(-c2c(F)cncc2F)c2nc(N3C[C@@H](O)[C@H](O)C3)ccc2c1=O)C(F)(F)F [Example 118, 1-(3,5-Difluoropyridin-4-yl)-7-[(3R,4R)-3,4-dihydroxypyrrolidin-1-yl]-4-oxo-N-[(2S)-1,1,1-trifluorobutan-2-yl]-1,4-dihydro-1,8-naphthyridine-3-carboxamide] | 6.30 | 100
CC(NC(=O)c1cn(-c2ncc(F)cc2F)c2nc(N3CCCC[C@@H]3CO)ccc2c1=O)C(F)(F)C(F)(F)F (single isomer, unassigned) [Example 176] | 7.55 | 100
O=C(NC(C1CC1)C(F)(F)F)c1cn(-c2ncc(F)cc2F)c2nc(N3C[C@@H](O)[C@@H](O)C3)ccc2c1=O (stereo partly drawn) [Example 35, N-[1-Cyclopropyl-2,2,2-trifluoroethyl]-1-(3,5-difluoropyridin-2-yl)-7-[(3R,4S)-3,4-dihydroxypyrrolidin-1-yl]-4-oxo-1,4-dihydro-1,8-naphthyridine-3-carboxamide] | 6.77 | 99.5
O=C(NC12CC(C1)C2)c1cn(-c2ncc(F)cc2F)c2nc(N3C[C@@H](O)CC3=O)ccc2c1=O [Example 101, N-(Bicyclo[1.1.1]pent-1-yl)-1-(3,5-difluoropyridin-2-yl)-7-[(4S)-4-hydroxy-2-oxopyrrolidin-1-yl]-4-oxo-1,4-dihydro-1,8-naphthyridine-3-carboxamide] | 6.23 | 78.5
O=C(N[C@H](C1CC1)C(F)(F)F)c1cn(-c2ncc(F)cc2Cl)c2nc(N3CC4CC4(O)C3)ccc2c1=O (mixture of isomers) [Example 52, 1-(3-Chloro-5-fluoropyridin-2-yl)-N-[(1R)-1-cyclopropyl-2,2,2-trifluoroethyl]-7-[1-hydroxy-3-azabicyclo[3.1.0]hex-3-yl]-4-oxo-1,4-dihydro-1,8-naphthyridine-3-carboxamide] | 7.32 | 90.5
O=C(N[C@H](C1CC1)C(F)(F)F)c1cn(-c2ncccc2Cl)c2nc(N3CC4CC4(O)C3)ccc2c1=O (mixture of isomers) [Example 54, 1-(3-Chloropyridin-2-yl)-N-[(1R)-1-cyclopropyl-2,2,2-trifluoroethyl]-7-[1-hydroxy-3-azabicyclo[3.1.0]hex-3-yl]-4-oxo-1,4-dihydro-1,8-naphthyridine-3-carboxamide] | 6.46 | 94.7
